Test results from patent publication US9044491B2, “Method for improving blood flow using stilbenoid derivatives” (The Board of Trustees of the University of Arkansas, priority 2010, dated 2015).

Key:
[1] = system: cecal ligation and puncture model (CLP); experiment: RNS generation in renal tubules after CLP (rhodamine IVVM, anti-nitrotyrosine staining); assay type: in vivo, mouse; conditions: for rhodamine fluorescence (RNS generation in renal tubules): 18 hours after CLP
Method: The reactive nitrogen species peroxynitrite preferentially oxidizes DHR to fluorescent rhodamine that is visualized at 535 nm excitation and 590 nm emission. Still images exposed for 500 ms were captured from fields of view used to determine capillary perfusion. Fluorescence intensity was measured by ImageJ (National Institutes of Health, Bethesda, Md.) after first subtracting background fluorescence intensity. Representative images of fluorescence are shown in FIG. 10, panels (A)-(C), and the quantification of fluorescence is shown in FIG. 10 panel D. Data are expressed as arbitrary units/μg. CLP increased the generation of RNS in the renal tubules compared to Control (Sham). […] Antigens were unmasked using 10 mM citrate (pH 6.0) and 95° C. for 30 min. Gill's hematoxylin II was used as a counterstain. […] FIG. 12 (E)-(G) show nitrotyrosine staining. After CLP, nitrotyrosine was intense in renal tubules but not in glomeruli. Two doses of tRes blocked formation of nitrotyrosine adducts.

[2] = system: CLP mice; experiment: Survival study after CLP; assay type: in vivo, mouse; conditions: 10 mg/kg at 6, 12, and 18 hours following CLP, monitored for 48 h
[3] = target: T1, human UGT1A1 (Homo sapiens, UniProt P22309); conditions: 250 μM
T1 sequence (P22309 26-533): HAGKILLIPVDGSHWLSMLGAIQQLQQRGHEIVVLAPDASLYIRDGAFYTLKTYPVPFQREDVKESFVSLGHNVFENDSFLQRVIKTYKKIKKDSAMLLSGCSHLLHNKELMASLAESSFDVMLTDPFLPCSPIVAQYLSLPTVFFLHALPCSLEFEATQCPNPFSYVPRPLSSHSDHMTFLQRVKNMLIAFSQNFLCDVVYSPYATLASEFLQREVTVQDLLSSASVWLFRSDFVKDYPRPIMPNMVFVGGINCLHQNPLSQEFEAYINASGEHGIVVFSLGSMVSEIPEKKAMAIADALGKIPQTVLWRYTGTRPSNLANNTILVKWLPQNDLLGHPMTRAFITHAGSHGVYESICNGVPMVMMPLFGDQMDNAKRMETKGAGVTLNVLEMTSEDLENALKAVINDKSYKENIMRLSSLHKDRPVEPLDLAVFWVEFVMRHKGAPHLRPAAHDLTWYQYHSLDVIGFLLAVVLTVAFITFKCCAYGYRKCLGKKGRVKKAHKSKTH
Method: Eight human recombinant UGT1A isoforms (UGT1A1, 1A3, 1A4, 1A6, 1A7, 1A8, 1A9, and 1A10; 5 μg) expressed as His-tag proteins in baculovirus-infected Sf9 insect cells and human liver microsomes (from one donor; HL2; 50 μg) and human intestinal microsomes (from two donors; HI36 and HI41; 50 μg) were evaluated for their ability to glucuronidate these four compounds. The concentrations of the substrate and co-substrate (i.e., UDP-GlcUA) were 250 μM and 4 mM, respectively. Glucuronidation products were analyzed by HPLC and LCMS/MS.
The kinetic constants of the glucuronidation reactions using recombinant human UGT1A1 and UGT1A10 were determined by measuring the enzyme activity in the presence of increasing concentrations of substrate (see FIG. 2).

## Oc1ccc(/C=C/c2cc(O)cc(O)c2)cc1 [tRes, trans-resveratrol]
[1]; second dose at 12 hours
  rhodamine fluorescence (RNS generation in renal tubules): completely blocked
[1]; single dose at 6 hours
  rhodamine fluorescence (RNS generation in renal tubules): partially, but significantly reduced
[1]; CLP, two doses
  formation of nitrotyrosine adducts: blocked
[2]
  survival in CLP mice: significantly improve survival
[3]
  glucuronide formation by UGT1A1: glucuronidated to 3-O— and 4′-O-Glucs
